In patent US6211210A, “Diphenyl-1,2,3-thiadiazol-3-oxides, compositions and methods of use” (Merck Frosst Canada & Co., priority 2000, dated 2001):
pIC50: −log10 of the molar value.

What was measured:
COX-2 = biological target: T1, COX-2 (Homo sapiens, UniProt P35354); assay: Human whole blood assay: COX-2 (LPS-induced PGE2 production); format: cell-based; conditions: LPS-induced PGE2, 24 hours at 37° C.
T1 construct: incubation of human whole blood with LPS which induces COX-2; endogenous in cells
T1 sequence (P35354 18-604): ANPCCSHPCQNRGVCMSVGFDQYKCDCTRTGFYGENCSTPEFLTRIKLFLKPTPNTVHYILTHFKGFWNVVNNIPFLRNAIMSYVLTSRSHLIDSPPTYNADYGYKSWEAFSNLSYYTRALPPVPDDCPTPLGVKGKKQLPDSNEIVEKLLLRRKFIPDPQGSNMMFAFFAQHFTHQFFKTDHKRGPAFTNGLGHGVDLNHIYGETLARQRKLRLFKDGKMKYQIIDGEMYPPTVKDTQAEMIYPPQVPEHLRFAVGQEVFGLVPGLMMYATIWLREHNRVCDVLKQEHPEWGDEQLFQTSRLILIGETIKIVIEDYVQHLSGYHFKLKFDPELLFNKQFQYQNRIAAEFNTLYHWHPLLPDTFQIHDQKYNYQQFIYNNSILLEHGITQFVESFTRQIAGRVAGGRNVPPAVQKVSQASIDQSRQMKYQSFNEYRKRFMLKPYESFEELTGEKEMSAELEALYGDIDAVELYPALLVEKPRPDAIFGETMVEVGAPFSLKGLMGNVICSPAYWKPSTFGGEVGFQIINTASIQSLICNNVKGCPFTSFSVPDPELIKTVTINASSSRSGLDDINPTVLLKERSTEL
Text: (§1) As well, platelets in whole blood contain a large amount of the COX-1 enzyme. Immediately following blood clotting, platelets are activated through a thrombin-mediated mechanism. This reaction results in the production of thromboxane B2 (TxB2) via activation of COX-1. Thus, the effect of test compounds on TxB2 levels following blood clotting can be examined and used as an index for COX-1 activity. Therefore, the degree of selectivity by the test compound can be determined by measuring the levels of PGE2 after LPS induction (COX-2) and TxB2 following blood clotting (COX-1) in the same assay.
Fresh blood was collected in heparinized tubes by venipuncture from both male and female volunteers. The subjects had no apparent inflammatory conditions and had not taken any NSAIDs for at least 7 days prior to blood collection. Plasma was immediately obtained from a 2 mL blood aliquot to use as blank (basal levels of PGE2). […] Five hundred μL aliquots of blood were incubated with either […] vehicle (DMSO) or 2 μL of a test compound at final concentrations varying from 10 nM to 30 μM for 24 hours at 37° C. At the end of the incubation, the blood was centrifuged at 12,000×g for 5 minutes to obtain plasma. Protein in the plasma is precipitated by mixing a 100 μL aliquot of plasma with 400 μL of methanol. The supernatant was assayed for PGE2 using a radioimmunoassay kit (Amersham, RPA#530) after conversion of PGE2 to its methyl oximate derivative according to the manufacturer's procedure.
(§2) In the assay, inhibition is determined by measuring the amount of prostaglandin E2 (PGE2) synthesized in the presence of arachidonic acid, COX-1 or COX-2 and a putative inhibitor.

[1] = system: carrageenan paw edema, rats; assay: Rat paw edema assay (carrageenan); format: in vivo, Male Sprague-Dawley rats; conditions: po, 1 hr before carrageenan, paw volume 3 hr later, read-out: ED50 (edema inhibition in rat paw)
Method: Male Sprague-Dawley rats (150-200 g) were fasted overnight and were given, po, either vehicle (1% methocel or 5% Tween 80), or a test compound. One hr later, a line was drawn using a permanent marker at the level above the ankle in one hind paw to define the area of the paw to be monitored. The paw volume (V0) was measured using a plethysmometer (Ugo-Basile, Italy) based on the principle of water displacement. The animals were then injected subplantarly with 50 ,l of 1% carrageenan solution in saline (FMC Corp, Maine) into the paw using an insulin syringe with a 25-gauge needle (i.e., 500 μg carrageenan per paw). Three hr later, the paw volume (V3) was measured and the increases in paw volume (V3 -V0) were calculated. The animals were sacrificed by CO2 asphyxiation and the absence or presence of stomach lesions scored. Data were compared with the vehicle-control values and percent inhibition calculated. ED50 values were used for comparison. All treatment groups were coded to eliminate observer bias.

COX-1 = biological target: T2, COX-1 (Homo sapiens, UniProt P23219); assay: Human whole blood assay: COX-1 (clotting-induced TxB2 production); format: cell-based; conditions: clotting-induced TxB2, 1 hour at 37° C.
T2 construct: platelets in whole blood contain a large amount of the COX-1 enzyme; endogenous in cells; host or cells: platelets in fresh human whole blood
Text: as §1
Fresh blood was collected into vacutainer tubes containing no anticoagulants. […] The tubes were vortexed and incubated at 37° C. for 1 hour to allow blood to clot. Serum was obtained by centrifugation (12,000×g for 5 min). Serum protein is precipitated by mixing a 100 μL aliquot of serum with 400 μL of methanol.
as §2

T2 sequence (P23219 24-599): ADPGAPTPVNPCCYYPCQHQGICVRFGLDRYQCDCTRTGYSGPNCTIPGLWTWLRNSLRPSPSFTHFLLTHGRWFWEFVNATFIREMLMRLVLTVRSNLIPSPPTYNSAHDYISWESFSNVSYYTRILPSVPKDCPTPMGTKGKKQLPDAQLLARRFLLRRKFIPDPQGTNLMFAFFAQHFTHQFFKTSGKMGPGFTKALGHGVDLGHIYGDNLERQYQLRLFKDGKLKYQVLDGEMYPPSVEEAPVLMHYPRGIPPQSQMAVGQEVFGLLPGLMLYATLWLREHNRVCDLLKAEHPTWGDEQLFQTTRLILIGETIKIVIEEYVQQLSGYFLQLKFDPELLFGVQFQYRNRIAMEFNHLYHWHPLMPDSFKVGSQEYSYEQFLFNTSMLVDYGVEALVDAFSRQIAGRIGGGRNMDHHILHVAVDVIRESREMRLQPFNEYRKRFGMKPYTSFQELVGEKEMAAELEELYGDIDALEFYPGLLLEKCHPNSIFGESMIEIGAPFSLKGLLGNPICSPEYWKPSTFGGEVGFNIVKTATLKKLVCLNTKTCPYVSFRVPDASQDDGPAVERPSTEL

SMILES	pIC50 (COX-2)	pIC50 (COX-1)	ED50 [1]
COc1ccc2c(c1)c(CC(=O)O)c(C)n2C(=O)c1ccc(Cl)cc1 [Indomethacin, reference compound]	–	–	2 mg/kg
CS(=O)(=O)c1ccc(-c2sn[n+]([O-])c2-c2cccc(Cl)c2)cc1 [Example 5, 4-(3-CHLOROPHENYL)-5-(4-(METHYLSULFONYL)PHENYL-1-2-3-THIADIAZOL-3-OXIDE]	6.30	–	1.5 mg/kg
CS(=O)(=O)c1ccc(-c2sn[n+]([O-])c2-c2ccc(F)c(F)c2)cc1 [Example 4, 4-(3,4-DIFLUOROPHENYL)-5-(4-(METHYLSULFONYL)PHENYL-1-2-3-THIADIAZOL-3-OXIDE]	6.30	4.24	–

Further molecules by rising pIC50 (COX-2), results first:

pIC50 (COX-2)	pIC50 (COX-1)	SMILES	ED50 [1]
5.89	4.06	CS(=O)(=O)c1ccc(-c2sn[n+]([O-])c2-c2cccc(F)c2)cc1 [Example 3, 4-(3-FLUOROPHENYL)-5-(4-(METHYLSULFONYL)PHENYL-1-2-3-THIADIAZOL-3-OXIDE]	–
6.22	4.42	CS(=O)(=O)c1ccc(-c2sn[n+]([O-])c2-c2ccccc2)cc1 [Example 1, 4-PHENYL-5-(4-(METHYLSULFONYL)PHENYL-1-2-3--THIADIAZOL-3-OXIDE]	0.9 mg/kg
6.22	4.74	CS(=O)(=O)c1ccc(-c2sn[n+]([O-])c2-c2ccc(F)cc2)cc1 [Example 2, 4-(4-FLUOROPHENYL)-5-(4-(METHYLSULFONYL)PHENYL-1-2-3-THIADIAZOL-3-OXIDE]	0.5 mg/kg
